# Experimental data: patent US8759010B2, “Host cell kinases as targets for antiviral therapies against HCV infection” (INSERM (Institut National de la Sante et de la Recherche …, priority 2008, dated 2014)
# Entries after “also recorded” stand apart in the source; their conditions may differ. Like-named read-outs stand apart in the source and are kept apart here.
# Tests used:
# [1] = system: HCVpp (genotype 1b) bearing envelope glycoproteins from HCV strains VD, VH, VK, VN; assay: Entry of patient-derived HCVpp in Huh7.5 cells; type: cell-based; details: 10 μM, 1 h prior to infection, FIG. 10B
# HCVpp JFH1; genotype 2a = assay: HCVpp entry in primary human hepatocytes; type: cell-based, HCV; details: JFH1-derived HCVpp; inhibitor added 1 h prior to infection; FIG. 9B
# HCVpp H77C, genotype 1a = assay: HCVpp entry in hepatoma cells, luciferase reporter (Example 1); type: cell-based, HCV; details: Huh7.5.1 cells, 1 μM or 10 μM inhibitor, 1 h prior to 3 h post-infection, FIG. 3
# HCVcc JFH1 = assay: HCVcc infection of Huh7.5.1 cells, luciferase reporter or RT-PCR of HCV RNA (Example 1); type: cell-based; details: 1 μM or 10 μM inhibitor, dose-dependent, FIG. 3
# Experimental: Bicistronic plasmid pFK-Luc-Jc1 (Koutsoudakis, 2006) encodes a luciferase reporter gene and a chimeric HCV genome designated Jc1 which consists of J6CF and JFH1 segments. In vitro HCV RNA synthesis and RNA transfection were carried out as previously described (Wakita, 2005). Culture supernatants from transfected cells were cleared and concentrated as previously described using an Amicon Ultra 15 (Millipore, USA) and used directly or were stored at 4° C. or −80° C. Viruses were titrered by using the limiting dilution assay on Huh7.5.1 cells with a few minor modifications and TCID50 values were calculated based on a method previously described (Lindenbach, 2005).
# All inhibitors used in this study were obtained from LC Laboratories (USA). Before use, they were dissolved in DMSO and diluted in Huh7.5.1 cell culture medium (Zhong, 2005). Following incubation, HCVpp entry and HCVcc infection were assessed by luciferase reporter gene expression or RT-PCR of HCV RNA in cells as previously reported (Pestka, 2007; Zeisel, 2007).
# HCVpp = HCVpp entry in primary human hepatocytes (Flavopiridol); details: HCVpp strain not stated
# [2] = system: primary human hepatocytes; assay: MTT cell viability, primary human hepatocytes; type: cell-based
# Experimental: Toxicity Assays. […] For siRNA experiments, MTT was added 3 days after transfection with siRNA for 5 hours. The final concentration of MTT was 0.6 mg/mL. […] 2.
# Huh7.5 cells = assay: MTT cell viability, Huh7.5 cells; type: cell-based, human; details: 10 μM, FIG. 7C
# Experimental: (§1) Toxicity Assays. Cytotoxicity effects on cells were assessed in triplicates by analyzing the ability to metabolize 3-(4,5-dimethylthiazol-2-yl)-2,5-diphenyltetrazolium bromide (MTT) (Lan, 2008). For siRNA experiments, MTT was added 3 days after transfection with siRNA for 5 hours. The final concentration of MTT was 0.6 mg/mL. Formazan crystals produced by the cells were solubilized and measured as described (Mosmann, 1983). 2. Identification of Cellular Kinases Involved in HCV Entry Using a Genome-Wide RNAi Kinase HCV Entry Screen
# Huh7.5.1 cells = assay: MTT cell viability, Huh7.5.1 cells; type: cell-based, human; details: 10 μM, FIG. 7D
# Experimental: as §1
# [3] = system: HCVcc Luc-Jc1, genotype 2a/2a; assay: microbe, parasite or virus in culture; type: cell-based, HCV; details: for IC50: Hepatitis C virus, hepatocytes or hepatocyte-derived cell lines, FIG. 9, read-out: IC50, inhibition of HCV entry and infection
# [4] = system: subgenomic HCV JFH1 replicon; assay: HCV replication, subgenomic JFH1 replicon, Northern blot; type: cell-based; details: Huh7.5 cells electroporated with subgenomic JFH1 replicon RNA, 24 h incubation, FIG. 9C
# From the text: HEK 293T, Huh7 and Huh7.5.1 cells used in the present study have previously been described (Bartosch, 2003; Barth, 2003; Zhong, 2005). Primary human hepatocytes were isolated and cultured as previously described (David, 1998, which is incorporated herein by reference in its entirety). Subgenomic HCV replicon JFH1-SGR used herein has also previously been described (Kato, 2005).
# A 9.7 kb fragment derived from plasmid […] (Wakita, 2005) digested with XbaI and EcoRI was labeled with α^32P-CTP using NEBlot kit (NEB, USA). Northern blotting was performed according to standard protocols (F. M. Ausubel et al., “Current Protocols in Molecular Biology”, John Wiley 1 Sons, Inc., 2007).
# Electroporation of RNA derived from plasmids pSGR-JFH1 was performed as previously described (Lan, 2008). Four hours after electroporation, cells were incubated with protein kinase inhibitors in cell culture supernatant for 24 hours. Total RNA was isolate and analyzed by Northern blot analysis of HCV RNA as described (Lohmann, 1999).
# [5] = system: HCVpp (genotype 1b) bearing envelope glycoproteins from HCV strains VD, VH, VK, VN; assay: Entry of patient-derived HCVpp in primary human hepatocytes; type: cell-based; details: 10 μM, 1 h prior to infection, FIG. 10C
# [6] = achievable plasma concentrations; Hidalgo and Bloedow, 2003; cited from earlier work
structure (smiles),measurement,setting,value
COC[C@H]1OC(=O)c2coc3c2[C@@]1(C)C1=C(C3=O)[C@@H]2CCC(=O)[C@@]2(C)C[C@H]1OC(C)=O [Wortmannin],Entry of patient-derived HCVpp in Huh7.5 cells,[1],did not inhibit
same,HCVpp entry in primary human hepatocytes,HCVpp JFH1; genotype 2a,did not have any effect
N#Cc1cnc2cnc(NCc3cccnc3)cc2c1Nc1ccc(F)c(Cl)c1 [TpI2 kinase inhibitor],Entry of patient-derived HCVpp in Huh7.5 cells,[1],did not result in a reproducible inhibition
CS(=O)(=O)CCNCc1ccc(-c2ccc3ncnc(Nc4ccc(OCc5cccc(F)c5)c(Cl)c4)c3c2)o1 [Lapatinib],HCVpp entry,"HCVpp H77C, genotype 1a",markedly inhibit
same,HCVcc infection,HCVcc JFH1,markedly inhibit
COc1cc2ncnc(Nc3ccc(F)c(Cl)c3)c2cc1OCCCN1CCOCC1 [Gefitinib],HCVpp entry,"HCVpp H77C, genotype 1a",markedly inhibit
same,HCVcc infection,HCVcc JFH1,markedly inhibit
CN1CC[C@H](c2c(O)cc(O)c3c(=O)cc(-c4ccccc4Cl)oc23)[C@H](O)C1 [Flavopiridol],HCVpp entry in primary human hepatocytes,HCVpp,markedly inhibited
same,Cytotoxic effects,[2],absence of any detectable cytotoxic effects
c1cc(-c2cnn3cc(-c4ccc(OCCN5CCCCC5)cc4)cnc23)ccn1 [Dorsomorphin],Cell viability (MTT assay),Huh7.5 cells,not diminished
same,Cell viability (MTT assay),Huh7.5.1 cells,slightly reduced
Cc1nc(Nc2ncc(C(=O)Nc3c(C)cccc3Cl)s2)cc(N2CCN(CCO)CC2)n1 [Dasatinib],IC50,[3],2 µM
same,HCV replication,[4],did not inhibit
same,Entry of patient-derived HCVpp in primary human hepatocytes,[5],markedly inhibited
same,HCVpp entry in primary human hepatocytes,HCVpp JFH1; genotype 2a,markedly inhibited
C#Cc1cccc(Nc2ncnc3cc(OCCOC)c(OCCOC)cc23)c1 [Erlotinib],Entry of patient-derived HCVpp in Huh7.5 cells,[1],markedly inhibited; also recorded: more potent than Dasatinib
same,HCVcc infection,"[3]; HCVcc Luc-Jc1, inhibitor added 1 h prior to infection, dose-dependent, FIG. 9A",dose-dependently inhibited; also recorded: markedly inhibited
same,IC50,[3]; Hepatocyte,~0.5 µM
same,Inhibitory effect on HCVcc infection by detection of viral RNA using RT-PCR,[3]; data not shown,confirmed
same,mean plasma concentrations,[6],~4 µM
same,HCV replication,[4],without markedly modulating replication; also recorded: did not inhibit
same,HCVpp entry,"HCVpp H77C, genotype 1a",markedly inhibit
same,Entry of patient-derived HCVpp in primary human hepatocytes,[5],markedly inhibited
same,HCVpp entry in primary human hepatocytes,HCVpp JFH1; genotype 2a,dose-dependently inhibited
same,HCVcc infection,HCVcc JFH1,markedly inhibit
